Measurements taken from PubChem BioAssay (NCI).
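Method: 48-hour compound exposure of cells in 96-well plates, five concentrations, linear interpolation of endpoints. Here, GI50 denotes the concentration required for 50% inhibition of growth. Definition used: TGI = concentration required for complete inhibition of growth.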

Experiments:
Assay in all cases: NCI tumour cell line growth inhibition, 48 h
HOP-62 NSCLC = test system: HOP-62 NSCLC
UACC-62 melanoma = test system: UACC-62 melanoma
DU-145 prostate = test system: DU-145 prostate
SW-620 colon = test system: SW-620 colon
UO-31 renal = test system: UO-31 renal
SR leukemia = test system: SR leukemia
HOP-92 NSCLC = test system: HOP-92 NSCLC
HL-60(TB) leukemia = test system: HL-60(TB) leukemia
EKVX NSCLC = test system: EKVX NSCLC
A549 NSCLC = test system: A549 NSCLC
786-0 renal = test system: 786-0 renal
MDA-MB-231 breast = test system: MDA-MB-231 breast
SF-268 CNS = test system: SF-268 CNS
UACC-257 melanoma = test system: UACC-257 melanoma
SK-MEL-2 melanoma = test system: SK-MEL-2 melanoma
NCI/ADR-RES ovarian = test system: NCI/ADR-RES ovarian
IGROV1 ovarian = test system: IGROV1 ovarian
SNB-75 CNS = test system: SNB-75 CNS
OVCAR-5 ovarian = test system: OVCAR-5 ovarian
T-47D breast = test system: T-47D breast
A498 renal = test system: A498 renal
NCI-H23 lung = test system: NCI-H23 lung
HT29 colon = test system: HT29 colon
OVCAR-4 ovarian = test system: OVCAR-4 ovarian
LOX IMVI melanoma = test system: LOX IMVI melanoma
HCC-2998 colon = test system: HCC-2998 colon
SN12C renal = test system: SN12C renal
CAKI-1 renal = test system: CAKI-1 renal
COLO 205 colon = test system: COLO 205 colon
SF-539 CNS = test system: SF-539 CNS
SNB-19 CNS = test system: SNB-19 CNS
MCF7 breast = test system: MCF7 breast
SF-295 CNS = test system: SF-295 CNS
OVCAR-3 ovarian = test system: OVCAR-3 ovarian
BT-549 breast = test system: BT-549 breast
RXF 393 renal = test system: RXF 393 renal
SK-OV-3 ovarian = test system: SK-OV-3 ovarian
SK-MEL-5 melanoma = test system: SK-MEL-5 melanoma
HCT-15 colon = test system: HCT-15 colon
NCI-H522 lung = test system: NCI-H522 lung
NCI-H460 lung = test system: NCI-H460 lung
ACHN renal = test system: ACHN renal
HS 578T breast = test system: HS 578T breast
CCRF-CEM leukemia = test system: CCRF-CEM leukemia
MALME-3M melanoma = test system: MALME-3M melanoma
HCT-116 colon = test system: HCT-116 colon
NCI-H226 lung = test system: NCI-H226 lung
RPMI-8226 leukemia = test system: RPMI-8226 leukemia
OVCAR-8 ovarian = test system: OVCAR-8 ovarian
SK-MEL-28 melanoma = test system: SK-MEL-28 melanoma
M14 melanoma = test system: M14 melanoma
K-562 leukemia = test system: K-562 leukemia
KM12 colon = test system: KM12 colon
MDA-MB-435 = test system: MDA-MB-435
TK-10 renal = test system: TK-10 renal
PC-3 prostate = test system: PC-3 prostate
MOLT-4 leukemia = test system: MOLT-4 leukemia

## Cc1cc(OCc2n[nH]c(=S)n2/N=C/c2ccc(F)cc2)ccc1Cl
HOP-62 NSCLC
  GI50: 81 µM
  TGI: > 100 µM
UACC-62 melanoma
  GI50: 20.1 µM
  TGI: 41.8 µM
DU-145 prostate
  GI50: 56.7 µM
  TGI: > 100 µM
SW-620 colon
  GI50: 34.5 µM
  TGI: > 100 µM
UO-31 renal
  GI50: 29.5 µM
  TGI: 91.6 µM
SR leukemia
  GI50: 18.5 µM
  TGI: 39.7 µM
HOP-92 NSCLC
  GI50: 32.6 µM
  TGI: > 100 µM
HL-60(TB) leukemia
  GI50: 18.3 µM
  TGI: 47.2 µM
EKVX NSCLC
  GI50: 64.4 µM
  TGI: > 100 µM
A549 NSCLC
  GI50: 26.6 µM
  TGI: 68.6 µM
786-0 renal
  GI50: 29.2 µM
  TGI: 87.2 µM
MDA-MB-231 breast
  GI50: 23.4 µM
  TGI: 62.5 µM
SF-268 CNS
  GI50: 30 µM
  TGI: 86.7 µM
UACC-257 melanoma
  GI50: 26.4 µM
  TGI: 62 µM
SK-MEL-2 melanoma
  GI50: 23.1 µM
  TGI: 57.2 µM
NCI/ADR-RES ovarian
  GI50: 29.3 µM
  TGI: 87.3 µM
IGROV1 ovarian
  GI50: 25.4 µM
  TGI: 82.3 µM
SNB-75 CNS
  GI50: 22.7 µM
  TGI: 69.2 µM
OVCAR-5 ovarian
  GI50: > 100 µM
  TGI: > 100 µM
T-47D breast
  GI50: 20.5 µM
  TGI: 57.3 µM
A498 renal
  GI50: 25.1 µM
  TGI: 68.3 µM
NCI-H23 lung
  GI50: 29.8 µM
  TGI: 94 µM
HT29 colon
  GI50: 18.9 µM
  TGI: 37.7 µM
OVCAR-4 ovarian
  GI50: 25.4 µM
  TGI: 55.4 µM
LOX IMVI melanoma
  GI50: 16.1 µM
  TGI: 32.4 µM
HCC-2998 colon
  GI50: 20.6 µM
  TGI: 43.7 µM
SN12C renal
  GI50: 19.6 µM
  TGI: 37.1 µM
CAKI-1 renal
  GI50: 42.8 µM
  TGI: > 100 µM
COLO 205 colon
  GI50: 15.9 µM
  TGI: 35.8 µM
SF-539 CNS
  GI50: 25.8 µM
  TGI: 57.4 µM
SNB-19 CNS
  GI50: 27.8 µM
  TGI: 83.8 µM
MCF7 breast
  GI50: 33.1 µM
  TGI: > 100 µM
SF-295 CNS
  GI50: 30.1 µM
  TGI: > 100 µM
OVCAR-3 ovarian
  GI50: 22.9 µM
  TGI: 49.4 µM
BT-549 breast
  GI50: 48 µM
  TGI: > 100 µM
RXF 393 renal
  GI50: 22.4 µM
  TGI: 46.8 µM
SK-OV-3 ovarian
  GI50: 31.7 µM
  TGI: 82.3 µM
SK-MEL-5 melanoma
  GI50: 17.9 µM
  TGI: 35 µM
HCT-15 colon
  GI50: 19.2 µM
  TGI: 47.2 µM
NCI-H522 lung
  GI50: 21.7 µM
  TGI: 54.8 µM
NCI-H460 lung
  GI50: 28.6 µM
  TGI: > 100 µM
ACHN renal
  GI50: 31.2 µM
  TGI: 87.5 µM
HS 578T breast
  GI50: 56.6 µM
  TGI: > 100 µM
CCRF-CEM leukemia
  GI50: 25.7 µM
  TGI: 70.2 µM
MALME-3M melanoma
  GI50: 25.1 µM
  TGI: 56.5 µM
HCT-116 colon
  GI50: 23.3 µM
  TGI: 53.1 µM
NCI-H226 lung
  GI50: 22.4 µM
  TGI: 54.7 µM
RPMI-8226 leukemia
  GI50: 16.7 µM
  TGI: 40.1 µM
OVCAR-8 ovarian
  GI50: 38.8 µM
  TGI: > 100 µM
SK-MEL-28 melanoma
  GI50: 26.7 µM
  TGI: 74.2 µM
M14 melanoma
  GI50: 29 µM
  TGI: > 100 µM
K-562 leukemia
  GI50: 20.8 µM
  TGI: 54 µM
KM12 colon
  GI50: 22.1 µM
  TGI: 53.8 µM
MDA-MB-435
  GI50: 25.9 µM
  TGI: > 100 µM
TK-10 renal
  GI50: 19.1 µM
  TGI: 58 µM
PC-3 prostate
  GI50: 29.2 µM
  TGI: > 100 µM
MOLT-4 leukemia
  GI50: 19.4 µM
  TGI: 51 µM
